In US9708286B2, “Ingenol-3-acylates III and ingenol-3-carbamates” (LEO Laboratories Limited, priority 2010, dated 2017):
Read-outs that look alike come from different tables or passages of the source.

Experiments:
Type in all cases: cell-based
[1] = system: PMN's (polymorphonuclear leukocytes); assay: Neutrophil oxidative burst; settings: normalized to 5×10^−7 M PEP0005
Protocol: PMN's (polymorphonuclear leukocytes) were isolated and purified from fresh buffy coats by sequential sedimentation, density centrifugation and lysis of contaminating erythrocytes. Buffy coats were incubated with 2% methocel for 30-45 min to differentially sediment red blood cells. The leukocyte-rich supernatant was transferred to lymphoprep tubes to remove mononuclear cells by density centrifugation (400×g, 30 min). The pellet was resuspended and any remaining erythrocytes lysed using 0.2% NaCl for 30 sec before restoring isotonicity by the addition of 1.2% NaCl. This step was repeated until the cell pellet appears relatively free of red blood cells. Cells were resuspended in DPBS (Dulbecco's Phosphate Buffered Saline) (w.o. Ca^2+, Mg^2+) and the concentration adjusted to 1.4×10^6 cells/ml in HBSS (Hanks Balanced Salt solution) (w Ca^2+, Mg^2±) containing 0.1% BSA (Bovine Serum Albumin) and 5 mM glucose just prior to assay initiation. Titrated reference and test compounds were pre-mixed with HE (Hydroethidine) (10 μM final assay concentration) before addition to 96-well plates containing 2.5×10^5 cells. Following 40 min incubation at RT, changes in the respiratory burst was estimated by measuring fluorescence at 579 nm (excitation: 485 nm) using an Envision plate reader.
Test compound titration curves were fitted to a four-parameter sigmoidal curve after normalizing the effect of the test compound to the effect of the positive control (5×10^−7 M PEP0005). Rel EC50 denotes the concentration of test compound producing an effect that is midway between the fitted top and bottom. Abs EC50 is the concentration of test compound that provokes a response corresponding to 50% of the maximal effect associated with the positive control (5×10^−7 M PEP0005).

[2] = system: Primary human epidermal keratinocytes, HeKa; assay: HeKa cytokine release (IL-8); settings: read-out: HeKa cytokine release (IL-8) Rel EC50 range
Protocol: Primary human epidermal keratinocytes, HeKa, were seeded (10.000 cells/well) in 96-well plates the day before the assay. Test compounds were diluted in DMSO (dimethyl sulfoxide) and further diluted in assay medium and pipetted into wells of 96 well-plates containing HeKa cells. The plates were incubated for 6 h at 37° C. in humidified air with 5% CO2. Plates were centrifuged briefly to spin down cells at 4° C., the supernatant was removed and analysed by Meso Scale Discovery (MSD) 4-spot cytokine assay (Pro-inflammatory II Ultra Sensitive kit, MSD, MD, USA). The MSD assay employs a sandwich immunoassay format where capture antibodies are coated in a patterned array on the bottom of the wells of a 4-Spot-Multi-MSD plate. Standard samples were incubated in the MULTI-SPOT plates as well, and the cytokine (IL-8) binds to its corresponding capture antibody spot. The cytokine level was quantitated on a SECTOR™ Imager using a cytokine-specific Detection Antibody labelled with MSD SULFO-TAG™ reagent.
Test compound titration curves were fitted to a four-parameter sigmoidal curve after normalizing the effect of the test compound to the effect of the positive control (1.5×10^−7 M PEP0005). Rel EC50 denotes the concentration of test compound producing an effect that is midway between the fitted top and bottom.

HeLa cells = assay: Necrosis assay; settings: Homo sapiens, HeLa, 0.5 h, read-out: HeLa necrosis EC50 range
Protocol: HeLa cells (ATCC CCL-002) were grown in minimal essential medium (Invitrogen catalog no. 42360) containing 10% fetal bovine serum, 100 IU/ml penicillin and 100 μg/ml streptomycin. 4,000-6,000 cells were seeded into 96-well black ViewPlates-plates, clear bottom, (Perkin Elmer) in 100 μl medium and incubated overnight. Compounds were dissolved and pre-diluted in DMSO in 96-well polypropylene plates (Greiner) in a concentration range of 15 μM to 600 μM. At the time of the experiment cell plates were placed on heating blocks at 37° C., medium was removed and 40 μl fresh, pre-warmed medium was added per well. Cells were incubated for 15 min before addition of compounds. In parallel, 3 μl of compounds were diluted with 197 μl growth medium on a Tecan freedom-EVO pipetting station using 250 μl/s pipetting speed, in order to ensure effective mixing of the highly concentrated compound solutions with the aqueous phase. These pre-dilution plates were then equilibrated on heating blocks at 37° C. for 10 min. 80 μl pre-diluted compound were transferred manually to the corresponding wells containing HeLa cells yielding compound concentrations of 10 μM to 400 μM. Control conditions were 1% DMSO in growth medium (100% viability) and 400 μM ingenol mebutate in growth medium (0% viability). Plates were incubated on the heating blocks at 37° C. for 30 min. At the end of the incubation 10 μl PrestoBlue reagent (Invitrogen) were added to each well, plates were sealed with black seal, followed by incubation at 37° C. for 10 min with gentle shaking (150 rpm). Subsequently, plates were placed at room temperature for 20-30 min. Plates were read immediately after on an Envision Fluorescence reader (Perkin Elmer) with excitation at 535 nm and emission at 630 nm. Test compound titration curves were fitted to a four-parameter sigmoidal curve after normalizing the effect of the test compound to the effect of the positive control (4 10^−4 M PEP0005/ingenol mebutate). AbsEC50 denotes the concentration of test compound producing 50% effect.

[3] = Leukocyte, 40 min, read-out: Neutrophil oxidative burst Rel EC50 range, PMN from buffy coats, 40 min at RT, hydroethidine fluorescence

Structure (SMILES)	EC50 [1, 3] [nM]	EC50 ([2]; Homo sapiens, HEKa, 6 h) [nM]	EC50 ([1]; read-out: Neutrophil oxidative burst Rel EC50 range, PMN from buffy coats, 40 min at RT, hydroethidine fluorescence) [nM]	EC50 ([2]; HeKa cells, 6 h at 37° C., IL-8 by MSD assay, normalized to 1.5×10^−7 M PEP0005) [nM]	EC50 (HeLa cells) [nM]
CC1=C[C@]23C(=O)[C@@H](C=C(CO)[C@@H](O)[C@]2(O)[C@H]1OC(=O)N1CCCC1C(F)(F)F)[C@H]1[C@@H](C[C@H]3C)C1(C)C (single isomer, unassigned; isomer a) [Compound 740, Ingenol 3-(2-trifluoromethyl-pyrrolidine-1-carboxylate) (ISOMER A)]	< 20	20 to 100	–	–	–
CC1=C[C@]23C(=O)[C@@H](C=C(CO)[C@@H](O)[C@]2(O)[C@H]1OC(=O)N1CCCC1C(F)(F)F)[C@H]1[C@@H](C[C@H]3C)C1(C)C (single isomer, unassigned; isomer b) [Compound 741, Ingenol 3-(2-trifluoromethyl-pyrrolidine-1-carboxylate) (ISOMER B)]	–	–	20 to 100	20 to 100	> 350000
CC1=C[C@]23C(=O)[C@@H](C=C(CO)[C@@H](O)[C@]2(O)[C@H]1OC(=O)c1c(-c2c(F)cccc2Cl)noc1C)[C@H]1[C@@H](C[C@H]3C)C1(C)C [Compound 501, Ingenol 3-(5-methyl-3-(2-chloro-6-fluoro-phenyl)-isoxazole-4-carboxylate)]	20 to 100	< 20	–	–	< 150000
CC1=C[C@]23C(=O)[C@@H](C=C(CO)[C@@H](O)[C@]2(O)[C@H]1OC(=O)c1c(-c2ccccc2)noc1C)[C@H]1[C@@H](C[C@H]3C)C1(C)C [Compound 502, Ingenol 3-(5-methyl-3-phenyl-isoxazole-4-carboxylate)]	< 20	< 20	–	–	< 150000
CC1=C[C@]23C(=O)[C@@H](C=C(CO)[C@@H](O)[C@]2(O)[C@H]1OC(=O)c1cnnn1-c1ccccc1)[C@H]1[C@@H](C[C@H]3C)C1(C)C [Compound 504, Ingenol 3-(3-phenyltriazole-4-carboxylate)]	20 to 100	20 to 100	–	–	–
CC1=C[C@]23C(=O)[C@@H](C=C(CO)[C@@H](O)[C@]2(O)[C@H]1OC(=O)c1cn(C)c2ccccc12)[C@H]1[C@@H](C[C@H]3C)C1(C)C [Compound 509, Ingenol 3-(1-methylindole-3-carboxylate)]	< 20	< 20	–	–	–
CC1=C[C@]23C(=O)[C@@H](C=C(CO)[C@@H](O)[C@]2(O)[C@H]1OC(=O)c1c(C(C)(C)C)noc1C)[C@H]1[C@@H](C[C@H]3C)C1(C)C [Compound 549, Ingenol 3-(5-methyl-3-tert-butyl-isoxazole-4-carboxylate)]	< 20	< 20	–	–	–
CC1=C[C@]23C(=O)[C@@H](C=C(CO)[C@@H](O)[C@]2(O)[C@H]1OC(=O)c1c(C)nn(C(C)(C)C)c1C)[C@H]1[C@@H](C[C@H]3C)C1(C)C [Compound 551, Ingenol 3-(1-tert-butyl-3,5-dimethyl-pyrazole-4-carboxylate)]	< 20	< 20	–	–	–
CC1=C[C@]23C(=O)[C@@H](C=C(CO)[C@@H](O)[C@]2(O)[C@H]1OC(=O)c1c(C)cc(=O)oc1C)[C@H]1[C@@H](C[C@H]3C)C1(C)C [Compound 573, Ingenol 3-(2,4-dimethyl-6-oxo-pyran-3-carboxylate)]	20 to 100	20 to 100	–	–	–
CC1=C[C@]23C(=O)[C@@H](C=C(CO)[C@@H](O)[C@]2(O)[C@H]1OC(=O)N(C)C)[C@H]1[C@@H](C[C@H]3C)C1(C)C [Compound 702, Ingenol 3-(N,N-dimethyl-carbamate)]	20 to 100	> 100	–	–	–
CC1=C[C@]23C(=O)[C@@H](C=C(CO)[C@@H](O)[C@]2(O)[C@H]1OC(=O)N1CCOCC1)[C@H]1[C@@H](C[C@H]3C)C1(C)C [Compound 703, Ingenol 3-(morpholine-4-carboxylate)]	20 to 100	> 100	–	–	–
CC1=C[C@]23C(=O)[C@@H](C=C(CO)[C@@H](O)[C@]2(O)[C@H]1OC(=O)N1CCCC1)[C@H]1[C@@H](C[C@H]3C)C1(C)C [Compound 704, Ingenol 3-(pyrrolidine-1-carboxylate)]	20 to 100	> 100	–	–	–
CC1=C[C@]23C(=O)[C@@H](C=C(CO)[C@@H](O)[C@]2(O)[C@H]1OC(=O)N1CCCCC1)[C@H]1[C@@H](C[C@H]3C)C1(C)C [Compound 707, Ingenol 3-(piperidine-1-carboxylate)]	< 20	20 to 100	–	–	–
CC1=C[C@]23C(=O)[C@@H](C=C(CO)[C@@H](O)[C@]2(O)[C@H]1OC(=O)N(C)Cc1ccccc1)[C@H]1[C@@H](C[C@H]3C)C1(C)C [Compound 708, Ingenol 3-(N-benzyl-N-methyl-carbamate)]	20 to 100	< 20	–	–	–
CC1=C[C@]23C(=O)[C@@H](C=C(CO)[C@@H](O)[C@]2(O)[C@H]1OC(=O)NC1CCCCC1)[C@H]1[C@@H](C[C@H]3C)C1(C)C [Compound 710, Ingenol 3-(N-cyclohexyl-carbamate)]	< 20	20 to 100	–	–	–
CC1=C[C@]23C(=O)[C@@H](C=C(CO)[C@@H](O)[C@]2(O)[C@H]1OC(=O)Nc1ccccc1)[C@H]1[C@@H](C[C@H]3C)C1(C)C [Compound 711, Ingenol 3-(N-phenyl-carbamate)]	20 to 100	< 20	–	–	–
CC1=C[C@]23C(=O)[C@@H](C=C(CO)[C@@H](O)[C@]2(O)[C@H]1OC(=O)NC1CCc2ccccc21)[C@H]1[C@@H](C[C@H]3C)C1(C)C (some centres unmarked) [Compound 712, Ingenol 3-(N-(indan-1-yl)-carbamate)]	20 to 100	20 to 100	–	–	–
CC1=C[C@]23C(=O)[C@@H](C=C(CO)[C@@H](O)[C@]2(O)[C@H]1OC(=O)N(C)c1ccccn1)[C@H]1[C@@H](C[C@H]3C)C1(C)C [Compound 724, Ingenol 3-(N-methyl-N-(2-pyridyl)-carbamate)]	–	20 to 100	–	–	> 350000
CC1=C[C@]23C(=O)[C@@H](C=C(CO)[C@@H](O)[C@]2(O)[C@H]1OC(=O)N1CCCCCC1)[C@H]1[C@@H](C[C@H]3C)C1(C)C [Compound 728, Ingenol 3-(azepane-1-carboxylate)]	20 to 100	20 to 100	–	–	–
